# Measurements from US10731187B2, “Recombinant strain producing O-aminobenzoate and fermentative production of aniline from renewable resources via 2-aminobenzoic acid” (Covestro Deutschland AG, priority 2014, dated 2020).
# Key:
# [1] = Solubility of oAB in 1-dodecanol (solid liquid equilibrium); format: physicochemical
# Experimental: The solubility of oAB in dodecanol was tested with increasing temperature.
# E. coli = assay: Shake flask growth (OD600) with supplementation of toxic substances; format: cell-based, Escherichia coli K12; details: already low concentrations
# Source text: Several strains commonly used industrial biotechnology were investigated regarding their natural tolerance towards oAB and to organic solvents in question for later product extraction (e.g. 1-dodecanol or octanol). Furthermore, the influence of the used pH value was investigated. It was known from previous experiments that at least for E. coli the toxicity of aromatic compounds depends strongly on the pH value, probably because protonated acids can much more efficiently penetrate the cell membrane and accordingly their toxicity rises severely. The extraction of oAB in an organic phase is supposed to work best at low pH values, close to the isoelectric point of oAB. The most relevant host strains considered were: Escherichia coli K12, Corynebacterium glutamicum DSM 20300 (=ATCC 13032), Pseudomonas putida KT2440, Bacillus subtilis subsp. 168, Saccharomyces cerevisiae DSM 70449, and Pichia pastoris X33 (DSM 70382).
# To investigate the chosen strains towards the mentioned characteristics shake flasks and small scale fermentation experiments were performed and the organisms were supplemented with the toxic substances (aminobenzoates, solvents) at differed concentrations, different pH values, and the behaviour of the strains was studied. […]
# [2] = tested on: Corynebacterium glutamicum; assay: Aminobenzoate stability in fermenter culture supernatants by HPLC-DAD; details: HPLC-DAD 254 nm
# Source text: It had to be excluded that the aminobenzoates were degraded by the organism and therefor the growth is restored after the prolonged lag-phase. To investigate the aminobenzoate stability in the fermenters culture supernatant samples were collected during the fermentation and analyzed by HPLC-DAD (254 nm) (see FIG. 23 and Example 3).
# In a further experiment the concentration of oAB was increased to investigate the effect on the C. glutamicum strain. The four fermenters were hereto supplemented with 0 g/L, 15 g/L, 35 g/L and 80 g/L of oAB. […] The rest of the cultivation conditions was kept as described above. […] Cultures supplemented with 15 g/L oAB have shown an extensive lag-phase over 34-48 h before growth was recovered and cells entered the exponential phase (see FIG. 24). […]
# An Agilent 1100 series HPLC-DAD system (with diode array detector; Agilent Technologies, Santa Clara (USA)) was used to quantify oAB concentrations in culture supernatants. […] The following gradient with a flow rate of 0.5 mL/min was applied: 0-1 min, 2% B; 1-2 min, 2-10% B; 2-12 min, 10-70% B; 12-23 min, 70-90% B; 23-25 min, 90-98% B, 25-27 min, 98% B; 27-27.5 min, 98%-2% B; 27.5-30 min, 2% B. The oAB concentration was determined from the signal integration at 254 nm (retention time: 18.9 min) using an external calibration curve.
structure (smiles),measurement,setting,value
"Nc1ccccc1C(=O)O [oAB, 2-aminobenzoic acid]",solubility in 1-dodecanol,"[1]; 3 wt %, room temperature",perfectly soluble
same,solubility of oAB in 1-dodecanol (concentration),[1]; 40 ° C.,4.88 wt %
same,solubility of oAB in 1-dodecanol (concentration),[1]; 68 ° C.,13.10 wt %
same,solubility of oAB in 1-dodecanol (concentration),[1]; 93 ° C.,23.05 wt %
same,solubility of oAB in 1-dodecanol (concentration),[1]; 111 ° C.,35.34 wt %
same,solubility of oAB in 1-dodecanol (concentration),[1]; 119 ° C.,44.22 wt %
same,solubility of oAB in 1-dodecanol (concentration),[1]; 123 ° C.,50.93 wt %
same,toxicity of o-aminobenzoate,E. coli,toxic
same,degradation during cultivation / fermentation,[2],excluded
